{
  "source": "patent US20240173232A1",
  "about": "“COSMETIC COMPOSITION COMPRISING CARNITINE-SALICYLATE AS ACTIVE INGREDIENT” (LG HOUSEHOLD & HEALTH CARE LTD., priority 2021, published 2024)",
  "key": {"pig back skin": {"test_system": "pig back skin", "experiment": "In vitro exfoliation efficacy (detached keratinocytes from pig back skin)", "details": "16 hours, n=5", "protocol": "The pig back skin surface was washed with phosphate buffer saline (PBS) and then cut to a certain size. Thereafter, the stratum corneum of the pig skin was exposed and placed on a 96-well plate, 100 μl of each sample was applied, and the 96-well plate was left in a constant temperature and humidity chamber for 16 hours. Thereafter, the supernatant of each sample was mixed well with a trypan blue solution in the 96-well plate to measure the number of detached keratinocytes. In order to verify the suitability of the relative dead skin cell control efficacy evaluation method used in this study, the following method was used. […] After treating the pig skin with the sample by the method described above, the number of detached keratinocytes was counted, and the number of detached keratinocytes in PHA (DL-gluconolactone) at pH 4.0 was set to 100% to evaluate the relative exfoliation efficacy. All evaluations were made at n=5 to secure reliability through repeated results."}, "Raw 264.7 cells [1]": {"test_system": "Raw 264.7 cells", "experiment": "NO production inhibition in LPS-treated Raw 264.7 cells (GRIESS method)", "format": "cell-based, rat", "details": "LPS 500 ng/ml", "protocol": "The anti-inflammatory effect of carnitine-salicylate (CA-SA) was confirmed experimentally.\nIn order to evaluate the efficacy of relieving inflammation caused by external stimuli in vitro, an experiment was performed by the GRIESS method using Raw 264.7 cells (ATCC number: CRL-2788), which are rat macrophage cell line, to evaluate the inhibition of NO production after treatment with lipopolysaccharide (LPS, Sigma Aldrich, USA). […] After removing the medium and performing starvation with a serum-free medium for 12 hours, the test material was treated at 0.1 to 100 ppm for 30 minutes, and then LPS was added at a concentration of 500 ng/ml and the cells were further cultured for 18 hours. After culturing, the supernatant was taken and transferred to a 96-well plate, GRIESS reagent was added and reacted at room temperature for 15 minutes, and absorbance at 540 nm was measured using an ELISA reader."}, "Raw 264.7 cells [2]": {"test_system": "Raw 264.7 cells", "experiment": "MTT cytotoxicity assay, Raw 264.7 cells", "details": "24 hours", "protocol": "(§1) The cytotoxicity of carnitine-salicylate (CA-SA) was evaluated by 3-(4,5-dimethythiazol-2-yl)-2,5-diphenyl tetrazolium bromide (MTT) assay. […] After removing the medium and adding each sample to a medium without FBS and incubating for 24 hours, the medium was removed, an MTT solution was added at a concentration of […], and reacted at 37° C. for 3 hours. The unreacted MTT solution was removed, and 100 μl of DMSO was added to dissolve the formed reaction product, and then absorbance was measured at 540 nm to confirm the cytotoxicity.\n(§2) The cytotoxicity of salicylate, carnitine, and carnitine-salicylate (CA-SA) was evaluated by treating Raw 264.7 cells, which are rat macrophages, and human fibroblasts with the material. As a Raw 264.7 cell is a representative cell used to measure NO inhibitory efficacy in anti-inflammatory efficacy evaluations, its cytotoxicity was evaluated, and cytotoxicity with respect to fibroblasts was evaluated in order to confirm the toxicity that may be induced when the material is included in cosmetics and be repeatedly applied to the skin."}, "[3]": {"test_system": "fibroblasts obtained from human skin tissue", "experiment": "MTT cytotoxicity assay, human fibroblasts", "details": "24 hours", "protocol": "as §1, §2"}, "[4]": {"details": "2% (mixture 1% + 1%), pH 5.5, relative to 10% gluconolactone pH 4.0 = 100%"}},
  "data": [
    {"smiles": "C[N+](C)(C)CC(O)CC(=O)[O-]", "note": "(centres unmarked) [CA, 4-trimethylamino-3-hydroxybutyric acid]", "values": [
      {"measurement": "Exfoliation rate (%)", "setting": "pig back skin; [4]", "result": 55.2, "unit": "%"},
      {"measurement": "inhibition at 10 ppm", "setting": "Raw 264.7 cells [1]; Mus musculus, RAW264.7, 10 ppm (mixture 10 ppm + 10 ppm), 18 hours, read-out: NO inhibition rate", "result": 0, "unit": "%"}
    ]},
    {"smiles": "O=C1O[C@H](CO)[C@@H](O)[C@H](O)[C@H]1O", "note": "(racemic) [Gloconolactone, DL-gluconolactone]", "values": [
      {"measurement": "Exfoliation rate (%)", "setting": "pig back skin; 10%, pH 4, positive control set to 100%", "result": 100.0, "unit": "%"},
      {"measurement": "Exfoliation rate (%)", "setting": "pig back skin; 10%, pH 6, relative to gluconolactone pH 4.0 = 100%", "result": 32.0, "unit": "%"}
    ]},
    {"smiles": "O=C(O)c1ccccc1O", "note": "[SA, salicylate]", "values": [
      {"measurement": "Exfoliation rate (%)", "setting": "pig back skin; [4]", "result": 19.2, "unit": "%"},
      {"measurement": "cell viability", "setting": "Raw 264.7 cells [2]; 50 ppm", "result": 96.16, "unit": "%"},
      {"measurement": "cell viability", "setting": "Raw 264.7 cells [2]; 100 ppm", "result": 79.74, "unit": "%"},
      {"measurement": "cell viability", "setting": "[3]; 50 ppm", "result": 94.83, "unit": "%"},
      {"measurement": "cell viability", "setting": "[3]; 100 ppm", "result": 85.36, "unit": "%"},
      {"measurement": "NO inhibition rate", "setting": "Raw 264.7 cells [1]; 10 ppm (mixture 10 ppm + 10 ppm), 18 hours", "result": 16.4, "unit": "%"}
    ]},
    {"smiles": "CC(=O)O.CNC(=N)NCCC[C@H](N)C(=O)O", "note": "[L-MMMA, NG-monomethyl-L-arginine acetate]", "values": [
      {"measurement": "NO inhibition rate", "setting": "Raw 264.7 cells [1]; positive control", "result": 62.2, "unit": "%"}
    ]}
  ]
}
